Laboratory results as given in paper PMC12583704 (Signal Transduction and Targeted Therapy, 2025).

Experiment: Phase 1 study NCT03594422: adverse events graded by NCI CTCAE v4.03
Assay type: in vivo, human
Procedure: Part 1 was a dose-escalation study to determine the recommended phase 2 dose (RP2D) in solid tumors. […] The initial design was a 3 + 3 dose escalation from 20 mg, but the protocol was amended to randomly enroll and assign patients to starting doses of 30, 40, and 50 mg on the basis of safety data acquired in the CML trial.[20] […] An interactive web response system was used for randomization. Part 2 was a nonrandomized study focusing on patients with SDH-deficient GISTs. […] On the basis of preliminary data from adult patients, adolescent patients with advanced wild-type GISTs were also included in Part 2. The dosage for adolescents was adjusted according to their body weights.
AEs were evaluated at each follow-up visit: on Days 1, 8, 15, and 22 during Cycles 1 and 2; and on Days 1 and 15 in Cycle 3 and all subsequent cycles, up to 30 days after the final dose. All AEs were graded according to the National Cancer Institute Common Terminology Criteria for Adverse Events v4.03. Clinical laboratory investigations for routine blood examinations and serum chemistry parameters were performed during every cycle (on Day 1), during Cycles 1 and 2 (on Days 8, 15, and 22), and 30 days after the last dose of treatment. Urinalysis, coagulation, cardiac troponin I/T, lipase, amylase, and electrocardiographic evaluations were conducted at baseline; during Cycles 1 and 2 (on Days 1 and 15); during Cycles 3, 5, 7, and 9; every three cycles after Cycle 9 (on Day 1); and 14 days after the last dose of treatment. All patients underwent tumor imaging for response assessment via computed tomography or magnetic resonance imaging at screening and every two cycles (8 weeks) until progression or discontinuation. Target and nontarget lesions were assessed per the Response Evaluation Criteria in Solid Tumors version 1.1 (RECIST v1.1).

Cc1ccc(C(=O)Nc2ccc(CN3CCN(C)CC3)c(C(F)(F)F)c2)cc1C#Cc1cnc2[nH]ncc2c1 [Olverembatinib, 3-[(1H-pyrazolo[3,4-b]pyridin-5-yl)ethynyl]-4-methyl-N-{4-[(4-methylpiperazin-1-yl)methyl]-3-(trifluoromethyl)phenyl]benzamide]
TEAE: Abdominal pain (20 mg (n = 3), Any grade): 0 n (%)
TEAE: Alanine aminotransferase increased (20 mg (n = 3), Any grade): 0 n (%)
TEAE: Anemia (20 mg (n = 3), Any grade): 1 (33.3) n (%)
TEAE: Aspartate aminotransferase increased (20 mg (n = 3), Any grade): 0 n (%)
TEAE: C-reactive protein increased (20 mg (n = 3), Any grade): 0 n (%)
TEAE: Constipation (20 mg (n = 3), Any grade): 2 (66.7) n (%)
TEAE: Fatigue (20 mg (n = 3), Any grade): 0 n (%)
TEAE: Hyperuricemia (20 mg (n = 3), Any grade): 2 (66.7) n (%)
TEAE: Hypoalbuminemia (20 mg (n = 3), Any grade): 0 n (%)
TEAE: Leukocyte count increased (20 mg (n = 3), Any grade): 1 (33.3) n (%)
TEAE: Melanocytic nevus (20 mg (n = 3), Any grade): 0 n (%)
TEAE: Neutrophil count increased (20 mg (n = 3), Any grade): 1 (33.3) n (%)
TEAE: Pyrexia (20 mg (n = 3), Any grade): 0 n (%)
TEAEs (20 mg (n = 3), Any grade): 3 (100.0) n (%)
TRAE: ALT increased (20 mg (n = 3), Any grade): 0 n (%)
TRAE: AST increased (20 mg (n = 3), Any grade): 0 n (%)
TRAE: Anemia (20 mg (n = 3), Any grade): 0 n (%)
TRAE: Blood creatinine increased (20 mg (n = 3), Any grade): 0 n (%)
TRAE: Constipation (20 mg (n = 3), Any grade): 1 (33.3) n (%)
TRAE: Fatigue (20 mg (n = 3), Any grade): 0 n (%)
TRAE: Hypoalbuminemia (20 mg (n = 3), Any grade): 0 n (%)
TRAE: Leukocyte count increased (20 mg (n = 3), Any grade): 1 (33.3) n (%)
TRAE: Melanocytic nevus (20 mg (n = 3), Any grade): 0 n (%)
TRAE: Neutrophil count increased (20 mg (n = 3), Any grade): 1 (33.3) n (%)
TRAE: Platelet count increased (20 mg (n = 3), Any grade): 0 n (%)
TRAE: Pyrexia (20 mg (n = 3), Any grade): 0 n (%)
TEAE: Abdominal pain (20 mg (n = 3), Grade 3-5): 0 n (%)
TEAE: Alanine aminotransferase increased (20 mg (n = 3), Grade 3-5): 0 n (%)
TEAE: Anemia (20 mg (n = 3), Grade 3-5): 0 n (%)
TEAE: Aspartate aminotransferase increased (20 mg (n = 3), Grade 3-5): 0 n (%)
TEAE: C-reactive protein increased (20 mg (n = 3), Grade 3-5): 0 n (%)
TEAE: Constipation (20 mg (n = 3), Grade 3-5): 0 n (%)
TEAE: Fatigue (20 mg (n = 3), Grade 3-5): 0 n (%)
TEAE: Hyperuricemia (20 mg (n = 3), Grade 3-5): 0 n (%)
TEAE: Hypoalbuminemia (20 mg (n = 3), Grade 3-5): 0 n (%)
TEAE: Leukocyte count increased (20 mg (n = 3), Grade 3-5): 0 n (%)
TEAE: Melanocytic nevus (20 mg (n = 3), Grade 3-5): 0 n (%)
TEAE: Neutrophil count increased (20 mg (n = 3), Grade 3-5): 0 n (%)
TEAE: Pyrexia (20 mg (n = 3), Grade 3-5): 0 n (%)
TEAEs (20 mg (n = 3), Grade 3-5): 0 n (%)
TRAE: ALT increased (20 mg (n = 3), Grade 3-5): 0 n (%)
TRAE: AST increased (20 mg (n = 3), Grade 3-5): 0 n (%)
TRAE: Anemia (20 mg (n = 3), Grade 3-5): 0 n (%)
TRAE: Blood creatinine increased (20 mg (n = 3), Grade 3-5): 0 n (%)
TRAE: Constipation (20 mg (n = 3), Grade 3-5): 0 n (%)
TRAE: Fatigue (20 mg (n = 3), Grade 3-5): 0 n (%)
TRAE: Hypoalbuminemia (20 mg (n = 3), Grade 3-5): 0 n (%)
TRAE: Leukocyte count increased (20 mg (n = 3), Grade 3-5): 0 n (%)
TRAE: Melanocytic nevus (20 mg (n = 3), Grade 3-5): 0 n (%)
TRAE: Neutrophil count increased (20 mg (n = 3), Grade 3-5): 0 n (%)
TRAE: Platelet count increased (20 mg (n = 3), Grade 3-5): 0 n (%)
TRAE: Pyrexia (20 mg (n = 3), Grade 3-5): 0 n (%)
TEAE: Abdominal pain (30 mg (n = 15), Any grade): 5 (33.3) n (%)
TEAE: Alanine aminotransferase increased (30 mg (n = 15), Any grade): 6 (40.0) n (%)
TEAE: Anemia (30 mg (n = 15), Any grade): 8 (53.3) n (%)
TEAE: Aspartate aminotransferase increased (30 mg (n = 15), Any grade): 7 (46.7) n (%)
TEAE: C-reactive protein increased (30 mg (n = 15), Any grade): 3 (20.0) n (%)
TEAE: Constipation (30 mg (n = 15), Any grade): 5 (33.3) n (%)
TEAE: Fatigue (30 mg (n = 15), Any grade): 4 (26.7) n (%)
TEAE: Hyperuricemia (30 mg (n = 15), Any grade): 7 (46.7) n (%)
TEAE: Hypoalbuminemia (30 mg (n = 15), Any grade): 4 (26.7) n (%)
TEAE: Leukocyte count increased (30 mg (n = 15), Any grade): 8 (53.3) n (%)
TEAE: Melanocytic nevus (30 mg (n = 15), Any grade): 3 (20.0) n (%)
TEAE: Neutrophil count increased (30 mg (n = 15), Any grade): 6 (40.0) n (%)
TEAE: Pyrexia (30 mg (n = 15), Any grade): 5 (33.3) n (%)
TEAEs (30 mg (n = 15), Any grade): 15 (100.0) n (%)
TRAE: ALT increased (30 mg (n = 15), Any grade): 4 (26.7) n (%)
TRAE: AST increased (30 mg (n = 15), Any grade): 5 (33.3) n (%)
TRAE: Anemia (30 mg (n = 15), Any grade): 1 (6.7) n (%)
TRAE: Blood creatinine increased (30 mg (n = 15), Any grade): 3 (20.0) n (%)
TRAE: Constipation (30 mg (n = 15), Any grade): 4 (26.7) n (%)
TRAE: Fatigue (30 mg (n = 15), Any grade): 4 (26.7) n (%)
TRAE: Hypoalbuminemia (30 mg (n = 15), Any grade): 4 (26.7) n (%)
TRAE: Leukocyte count increased (30 mg (n = 15), Any grade): 6 (40.0) n (%)
TRAE: Melanocytic nevus (30 mg (n = 15), Any grade): 3 (20.0) n (%)
TRAE: Neutrophil count increased (30 mg (n = 15), Any grade): 6 (40.0) n (%)
TRAE: Platelet count increased (30 mg (n = 15), Any grade): 1 (6.7) n (%)
TRAE: Pyrexia (30 mg (n = 15), Any grade): 1 (6.7) n (%)
TEAE: Abdominal pain (30 mg (n = 15), Grade 3-5): 1 (6.7) n (%)
TEAE: Alanine aminotransferase increased (30 mg (n = 15), Grade 3-5): 0 n (%)
TEAE: Anemia (30 mg (n = 15), Grade 3-5): 1 (6.7) n (%)
TEAE: Aspartate aminotransferase increased (30 mg (n = 15), Grade 3-5): 0 n (%)
TEAE: C-reactive protein increased (30 mg (n = 15), Grade 3-5): 0 n (%)
TEAE: Constipation (30 mg (n = 15), Grade 3-5): 0 n (%)
TEAE: Fatigue (30 mg (n = 15), Grade 3-5): 0 n (%)
TEAE: Hyperuricemia (30 mg (n = 15), Grade 3-5): 1 (6.7) n (%)
TEAE: Hypoalbuminemia (30 mg (n = 15), Grade 3-5): 0 n (%)
TEAE: Leukocyte count increased (30 mg (n = 15), Grade 3-5): 0 n (%)
TEAE: Melanocytic nevus (30 mg (n = 15), Grade 3-5): 0 n (%)
TEAE: Neutrophil count increased (30 mg (n = 15), Grade 3-5): 0 n (%)
TEAE: Pyrexia (30 mg (n = 15), Grade 3-5): 0 n (%)
TEAEs (30 mg (n = 15), Grade 3-5): 5 (33.3) n (%)
TRAE: ALT increased (30 mg (n = 15), Grade 3-5): 0 n (%)
TRAE: AST increased (30 mg (n = 15), Grade 3-5): 0 n (%)
TRAE: Anemia (30 mg (n = 15), Grade 3-5): 0 n (%)
TRAE: Blood creatinine increased (30 mg (n = 15), Grade 3-5): 0 n (%)
TRAE: Constipation (30 mg (n = 15), Grade 3-5): 0 n (%)
TRAE: Fatigue (30 mg (n = 15), Grade 3-5): 0 n (%)
TRAE: Hypoalbuminemia (30 mg (n = 15), Grade 3-5): 0 n (%)
TRAE: Leukocyte count increased (30 mg (n = 15), Grade 3-5): 0 n (%)
TRAE: Melanocytic nevus (30 mg (n = 15), Grade 3-5): 0 n (%)
TRAE: Neutrophil count increased (30 mg (n = 15), Grade 3-5): 0 n (%)
TRAE: Platelet count increased (30 mg (n = 15), Grade 3-5): 0 n (%)
TRAE: Pyrexia (30 mg (n = 15), Grade 3-5): 0 n (%)
TEAE: Abdominal pain (40 mg (n = 32), Any grade): 7 (21.9) n (%)
TEAE: Alanine aminotransferase increased (40 mg (n = 32), Any grade): 13 (40.6) n (%)
TEAE: Anemia (40 mg (n = 32), Any grade): 14 (43.8) n (%)
TEAE: Aspartate aminotransferase increased (40 mg (n = 32), Any grade): 14 (43.8) n (%)
TEAE: C-reactive protein increased (40 mg (n = 32), Any grade): 8 (25.0) n (%)
TEAE: Constipation (40 mg (n = 32), Any grade): 13 (40.6) n (%)
TEAE: Fatigue (40 mg (n = 32), Any grade): 11 (34.4) n (%)
TEAE: Hyperuricemia (40 mg (n = 32), Any grade): 17 (53.1) n (%)
TEAE: Hypoalbuminemia (40 mg (n = 32), Any grade): 5 (15.6) n (%)
TEAE: Leukocyte count increased (40 mg (n = 32), Any grade): 15 (46.9) n (%)
TEAE: Melanocytic nevus (40 mg (n = 32), Any grade): 10 (31.3) n (%)
TEAE: Neutrophil count increased (40 mg (n = 32), Any grade): 12 (37.5) n (%)
TEAE: Pyrexia (40 mg (n = 32), Any grade): 17 (53.1) n (%)
TEAEs (40 mg (n = 32), Any grade): 32 (100.0) n (%)
TRAE: ALT increased (40 mg (n = 32), Any grade): 11 (34.4) n (%)
TRAE: AST increased (40 mg (n = 32), Any grade): 12 (37.5) n (%)
TRAE: Anemia (40 mg (n = 32), Any grade): 4 (12.5) n (%)
TRAE: Blood creatinine increased (40 mg (n = 32), Any grade): 5 (15.6) n (%)
TRAE: Constipation (40 mg (n = 32), Any grade): 13 (40.6) n (%)
TRAE: Fatigue (40 mg (n = 32), Any grade): 9 (28.1) n (%)
TRAE: Hypoalbuminemia (40 mg (n = 32), Any grade): 3 (9.4) n (%)
TRAE: Leukocyte count increased (40 mg (n = 32), Any grade): 12 (37.5) n (%)
TRAE: Melanocytic nevus (40 mg (n = 32), Any grade): 8 (25.0) n (%)
TRAE: Neutrophil count increased (40 mg (n = 32), Any grade): 9 (28.1) n (%)
TRAE: Platelet count increased (40 mg (n = 32), Any grade): 4 (12.5) n (%)
TRAE: Pyrexia (40 mg (n = 32), Any grade): 14 (43.8) n (%)
TEAE: Abdominal pain (40 mg (n = 32), Grade 3-5): 0 n (%)
TEAE: Alanine aminotransferase increased (40 mg (n = 32), Grade 3-5): 0 n (%)
TEAE: Anemia (40 mg (n = 32), Grade 3-5): 2 (6.3) n (%)
TEAE: Aspartate aminotransferase increased (40 mg (n = 32), Grade 3-5): 0 n (%)
TEAE: C-reactive protein increased (40 mg (n = 32), Grade 3-5): 0 n (%)
